Measurements reported in patent US20130029942A1, “COMPOUNDS AND THERAPEUTICAL USES THEREOF” (Myrexis, Inc., priority 2003, published 2013).
Where a name gives a salt, the structure may show the parent alone. Read-outs that look alike come from different tables or passages of the source.

What was measured:
[1] = tested on: P388 cells; assay: Cytotoxicity (ATP-lite cell viability), P388; format: cell-based, murine; conditions: Mus musculus; P388, 72 hours
Method: (§1) Cytotoxicity of compounds in multidrug resistant cells can be determined by administering compounds to cell lines that overexpress the multidrug resistance pump MDR-1 and determining the viability of the cell lines.
(§2) NCI-ADR/Res, MCF-7, P388, and P388/ADR cell lines were obtained from American Type Culture Collection (Manassas, Va.) and maintained in RPMI-1640 media supplemented with 10% FCS, 10 units/ml penicillin and streptomycin, 2 mM Glutamax and 1 mM sodium pyruvate (Invitrogen Corporation, Carlsbad, Calif.). For compound testing, cells were plated in 96 well dishes at a concentration of 1.5×10^4 cells/well. Cells were allowed to adhere to the plate overnight and then incubated with compounds at final concentrations ranging from 0.13 nM to 10 uM for 72 hours. Cell viability was then assessed using the ATP-lite reagent (Perkin Elmer, Foster City, Calif.). Plates were read on a Wallac Topcount luminescence reader (Perkin Elmer, Foster City, Calif.) and the results graphed in Prism software (Graphpad Software, Inc., San Diego, Calif.). Non-linear regression with variable slope analysis was performed to obtain IC50 concentration values.
(§3) Example 1 compound, docetaxel, and vinblastine were tested for their ability to kill multidrug resistant cells by administering the compounds to NCI-ADR/Res, MCF-7 cells, P388 and P388/ADR cells and determining the viability of the cells.

[2] = tested on: MCF-7 cells; assay: Cytotoxicity (ATP-lite cell viability), MCF-7; format: cell-based; conditions: Homo sapiens, MCF7; MCF-7, 72 hours
Method: as §1, §2, §3

[3] = tested on: NCI-ADR/Res cells; assay: Cytotoxicity (ATP-lite cell viability), MDR-1 over-expressing NCI-ADR/Res; format: cell-based; conditions: Homo sapiens, 72 hours
Method: as §1, §2, §3

[4] = tested on: P388/ADR cells; assay: Cytotoxicity (ATP-lite cell viability), MDR-1 over-expressing P388/ADR; format: cell-based; conditions: Mus musculus, 72 hours
Method: as §1, §2, §3

[5] = tested on: SW620 cells; assay: Inhibition of cell proliferation (GI50), CellTiter-Glo, SW620; format: cell-based; conditions: Homo sapiens, SW-620; SW620, 48 h; read-out: GI50
Method: (§4) T-47D, DLD, H1299, MX-1 and SW620 cells were grown and harvested as in Example 262. […] An aliquot of 45 μL of cells was added to a well of a 96-well microtiter plate containing 5 μL of a 10% DMSO in RPMI-1640 media solution without compound as the control sample for maximal cell proliferation (Lmax). The samples were mixed by agitation and then incubated at 37° C. for 48 h in a 5% CO2—95% humidity incubator. After incubation, the samples were removed from the incubator and 25 μL of CellTiter-Glo™ reagent (Promega) was added. The samples were mixed by agitation and incubated at room temeperature for 10-15 min. Plates were then read using a luminescent plate reader (Model SPECTRAfluor Plus, Tecan) to give Ltest values.
(§5) The samples were mixed by agitation and then incubated at 37° C. for 0.5 h in a 5% CO2—95% humidity incubator. After incubation, the samples were removed from the incubator and 25 μL of CellTiter-Glo™ reagent (Promega) was added. The samples were mixed by agitation and incubated at 37° C. for 10-15 min at room temperature in a 5% CO2—95% humidity incubator. Fluorescence was read as above, (LStart) defining luminescence for initial cell number used as baseline in GI50 determinations.

[6] = tested on: DLD cells; assay: Inhibition of cell proliferation (GI50), CellTiter-Glo, DLD; format: cell-based; conditions: Homo sapiens; DLD, 48 h; read-out: GI50
Method: as §4, §5

[7] = tested on: T-47D cells; assay: Inhibition of cell proliferation (GI50), CellTiter-Glo, T-47D; format: cell-based; conditions: Homo sapiens, T47D; T-47D, 48 h; read-out: GI50
Method: as §4, §5

[8] = tested on: T-47D cells; assay: Caspase cascade activation / induction of apoptosis in T-47D cells (fluorogenic N-(Ac-DEVD)-N'-ethoxycarbonyl-R110 substrate); format: cell-based, human; conditions: Homo sapiens, T47D
[9] = tested on: H1299 cells; assay: Inhibition of cell proliferation (GI50), CellTiter-Glo, H1299; format: cell-based; conditions: Homo sapiens, NCI-H1299, 48 h; read-out: GI50
Method: as §4, §5

[10] = molecular target: tubulin (Bos taurus, UniProt P81947+Q6B856); assay: Inhibition of tubulin polymerization (DAPI fluorescence); format: biochemical; conditions: MAP-rich tubulin, 30 minutes at 37° C.
Method: Lyophilized tubulin (Cytoskeleton #ML113, 1 mg, MAP-rich) was assayed for the effect of the test compound on tubulin polymerization as measured by change in fluorescence for 4′,6-diamidino-2-phenylindole (DAPI) (Barron, D. M. et al. Analytical Biochem., 2003, 315, 49-56). 1 μl of serial dilutions of each test compound (from 100×DMSO stock) was added in 96 well plate format and preincubated for 30 minutes with 94 ul of the non-GTP supplemented tubulin supernatant. 5 μl of DAPI/GTP solution was added to initiate polymerization and incubated for 30 minutes at 37° C. Fluorescence was read with excitation 350 nm, emission wavelength 485 nm on a Tecan Spectraflour Plus. Polymerized tubulin (DMSO and with the tubulin stabilizer Taxol® (paclitaxel)) gives a higher DAPI fluorescence as compared to non-polymerized tubulin (vinblastine and colchicine used to determine baseline).

[11] = tested on: MX-1 cells; assay: Inhibition of cell proliferation (GI50), CellTiter-Glo, MX-1; format: cell-based; conditions: Homo sapiens, MX1; MX-1, 48 h; read-out: GI50
Method: as §4, §5

[12] = molecular target: tyrosine kinase of Epidermal Growth Factor Receptor (Homo sapiens, UniProt P00533); conditions: Bridges et al. 1996; read-out: IC50 EGFR tyrosine kinase; cited from earlier work
[13] = molecular target: T1, topoisomerase I (Homo sapiens, UniProt P11387); assay: Topoisomerase I activity assay (relaxation of supercoiled DNA, gel); conditions: Form I DNA, varying concentrations, FIG. 2
T1 sequence (P11387 1-765): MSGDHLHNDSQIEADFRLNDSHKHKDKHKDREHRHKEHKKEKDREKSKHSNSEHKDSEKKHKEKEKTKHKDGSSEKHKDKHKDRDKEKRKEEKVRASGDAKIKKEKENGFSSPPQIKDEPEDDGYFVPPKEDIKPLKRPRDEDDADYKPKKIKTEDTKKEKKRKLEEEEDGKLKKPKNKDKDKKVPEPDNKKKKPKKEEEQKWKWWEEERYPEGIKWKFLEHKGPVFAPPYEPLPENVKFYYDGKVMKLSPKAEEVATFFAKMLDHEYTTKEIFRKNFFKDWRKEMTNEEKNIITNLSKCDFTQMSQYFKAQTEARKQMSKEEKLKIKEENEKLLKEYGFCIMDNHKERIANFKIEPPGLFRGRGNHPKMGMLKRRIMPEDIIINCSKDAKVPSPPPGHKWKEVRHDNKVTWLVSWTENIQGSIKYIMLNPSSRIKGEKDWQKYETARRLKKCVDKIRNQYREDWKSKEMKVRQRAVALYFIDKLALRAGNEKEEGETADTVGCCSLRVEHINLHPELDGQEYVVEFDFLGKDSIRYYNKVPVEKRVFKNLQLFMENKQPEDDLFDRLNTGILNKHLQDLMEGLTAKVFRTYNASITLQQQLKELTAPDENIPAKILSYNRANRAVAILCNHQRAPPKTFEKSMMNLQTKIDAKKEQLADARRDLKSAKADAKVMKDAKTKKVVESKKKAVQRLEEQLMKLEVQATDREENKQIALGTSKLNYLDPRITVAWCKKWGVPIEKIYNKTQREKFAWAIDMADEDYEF

[14] = T-47D, 24 hr, read-out: T-47D (24 hr) EC50
[15] = T-47D, 48 hr, read-out: T-47D (48 hr) EC50
[16] = Table III, time not given, repeats 24 hr or 48 hr T-47D values of Table I, read-out: Caspase activation (EC50 nM)

tubulin, sequence (P81947 whole entry): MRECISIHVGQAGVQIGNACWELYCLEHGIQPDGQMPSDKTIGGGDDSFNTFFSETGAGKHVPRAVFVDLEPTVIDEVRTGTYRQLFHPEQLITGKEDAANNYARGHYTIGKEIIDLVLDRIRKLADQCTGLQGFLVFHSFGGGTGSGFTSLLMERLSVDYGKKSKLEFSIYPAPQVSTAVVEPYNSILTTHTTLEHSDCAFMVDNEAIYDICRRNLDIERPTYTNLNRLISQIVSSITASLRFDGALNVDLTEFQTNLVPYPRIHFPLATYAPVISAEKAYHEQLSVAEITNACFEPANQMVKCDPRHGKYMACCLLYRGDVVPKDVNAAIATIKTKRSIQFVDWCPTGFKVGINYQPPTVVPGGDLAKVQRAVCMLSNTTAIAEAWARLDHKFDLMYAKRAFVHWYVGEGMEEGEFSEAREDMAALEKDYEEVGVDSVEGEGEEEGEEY
tubulin, sequence (Q6B856 whole entry): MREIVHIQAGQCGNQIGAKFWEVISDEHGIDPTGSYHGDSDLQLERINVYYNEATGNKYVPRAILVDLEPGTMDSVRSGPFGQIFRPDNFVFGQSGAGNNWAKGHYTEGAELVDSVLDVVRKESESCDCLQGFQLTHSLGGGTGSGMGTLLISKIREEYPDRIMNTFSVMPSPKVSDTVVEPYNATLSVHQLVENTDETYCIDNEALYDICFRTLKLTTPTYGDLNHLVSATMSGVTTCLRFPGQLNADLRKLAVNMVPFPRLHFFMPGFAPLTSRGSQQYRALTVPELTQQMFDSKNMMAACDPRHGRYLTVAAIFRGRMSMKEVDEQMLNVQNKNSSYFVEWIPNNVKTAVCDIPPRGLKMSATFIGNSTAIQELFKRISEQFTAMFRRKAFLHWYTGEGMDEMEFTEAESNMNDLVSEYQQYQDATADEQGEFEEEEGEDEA
tyrosine kinase of Epidermal Growth Factor Receptor, sequence (P00533 25-1210): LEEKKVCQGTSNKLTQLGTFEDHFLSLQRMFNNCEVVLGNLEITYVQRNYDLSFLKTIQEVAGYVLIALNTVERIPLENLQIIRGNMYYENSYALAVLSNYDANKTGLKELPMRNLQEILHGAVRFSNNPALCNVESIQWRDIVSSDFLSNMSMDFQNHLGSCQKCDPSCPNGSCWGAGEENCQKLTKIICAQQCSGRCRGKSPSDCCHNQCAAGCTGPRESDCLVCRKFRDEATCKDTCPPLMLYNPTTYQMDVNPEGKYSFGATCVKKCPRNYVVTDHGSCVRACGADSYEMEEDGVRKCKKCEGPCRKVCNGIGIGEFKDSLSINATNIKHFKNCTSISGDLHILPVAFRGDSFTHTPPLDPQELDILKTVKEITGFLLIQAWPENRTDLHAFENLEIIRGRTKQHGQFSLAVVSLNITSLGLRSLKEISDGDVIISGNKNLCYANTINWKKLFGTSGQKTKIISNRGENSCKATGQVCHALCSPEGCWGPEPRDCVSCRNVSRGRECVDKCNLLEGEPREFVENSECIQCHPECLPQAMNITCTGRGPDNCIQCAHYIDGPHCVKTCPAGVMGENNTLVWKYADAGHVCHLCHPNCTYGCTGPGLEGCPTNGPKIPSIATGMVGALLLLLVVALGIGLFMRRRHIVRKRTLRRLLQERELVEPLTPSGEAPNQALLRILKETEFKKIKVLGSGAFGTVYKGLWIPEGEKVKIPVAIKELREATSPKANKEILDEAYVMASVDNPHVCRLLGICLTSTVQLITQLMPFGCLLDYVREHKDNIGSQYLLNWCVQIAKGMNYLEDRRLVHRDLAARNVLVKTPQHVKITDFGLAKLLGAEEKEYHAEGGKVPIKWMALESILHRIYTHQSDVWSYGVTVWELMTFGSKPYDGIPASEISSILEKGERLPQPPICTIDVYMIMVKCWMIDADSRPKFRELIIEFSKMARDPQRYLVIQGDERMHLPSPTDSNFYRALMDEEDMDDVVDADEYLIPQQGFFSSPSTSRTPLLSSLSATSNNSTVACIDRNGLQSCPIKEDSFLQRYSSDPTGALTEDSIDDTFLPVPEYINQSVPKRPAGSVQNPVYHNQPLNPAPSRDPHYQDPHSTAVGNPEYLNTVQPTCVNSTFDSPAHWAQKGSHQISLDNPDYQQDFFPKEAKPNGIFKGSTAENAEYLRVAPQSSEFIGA

| Compound | EC50 [8, 14] [nM] | EC50 [8, 15] [nM] | EC50 [8, 16] [nM] | IC50 [10] [nM] | also measured |
| --- | --- | --- | --- | --- | --- |
| CC(=O)O[C@@]12CO[C@@H]1C[C@H](O)[C@@]1(C)C(=O)[C@H](O)C3=C(C)[C@@H](OC(=O)[C@H](O)[C@@H](NC(=O)OC(C)(C)C)c4ccccc4)C[C@@](O)([C@@H](OC(=O)c4ccccc4)[C@H]21)C3(C)C [Docetaxel, docetaxel] |  |  |  |  | IC50 [1]: 7 nM; IC50 [2]: 2 nM; IC50 [3]: 410 nM; IC50 [4]: 127 nM |
| COc1ccc(Nc2nc(Cl)nc3ccccc23)cc1 [Example 7, (2-Chloro-quinazolin-4-yl)-(4-methoxy-phenyl)-amine] | > 10000 | > 10000 | > 10000 | > 50000 | GI50 [5]: > 10000 nM; GI50 [6]: > 10000 nM; GI50 [7]: > 10000 nM; GI50 [9]: > 10000 nM; GI50 [11]: > 10000 nM |
| COc1ccc(N(C)c2ncnc3c2CCCC3)cc1 [Example 25, (5,6,7,8-Tetrahydro-quinazolin-4-yl)-(4-methoxy-phenyl)-methyl-amine] |  | 42 | 42 | 2000 |  |
| COc1ccc(OC)c(Nc2nc(Cl)nc3ccccc23)c1 [Example 31, (2-Chloro-quinazolin-4-yl)-(2,5-dimethoxy-phenyl)-amine] | 317 | 563 | 317 | 10000 |  |
| Cc1ccc(N(C)c2ncnc3ccccc23)cc1 [Example 35, (4-Methyl-phenyl)-methyl-quinazolin-4-yl-amine] | 141 |  | 141 | 4000 |  |
| COc1ccc(N(C)c2nc(Cl)nc3ccccc23)cn1 [Example 36, (2-Chloro-quinazolin-4-yl)-(6-methoxy-pyridin-3-yl)-methyl-amine] | 6 |  | 6 | < 1000 | GI50 [5]: 70 nM; GI50 [6]: 89 nM; GI50 [7]: 111 nM; GI50 [9]: 53 nM; GI50 [11]: 73 nM |
| COc1ccc(N(C)c2nc(Cl)nc3ccccc23)c(OC)c1 [Example 41, (2-Chloro-quinazolin-4-yl)-(2,4-dimethoxy-phenyl)-methyl-amine] |  | 20 | 20 | < 1000 |  |
| COc1ccc(OC)c(N(C)c2nc(Cl)nc3ccccc23)c1 [Example 42, (2-Chloro-quinazolin-4-yl)-(2,5-dimethoxy-phenyl)-methyl-amine] | 282 | 265 | 282 | 5000 |  |
| COc1cccc(N(C)c2nc(Cl)nc3ccccc23)c1 [Example 43, (2-Chloro-quinazolin-4-yl)-(3-methoxy-phenyl)-methyl-amine] |  | 34 | 34 | 2000 |  |
| COc1ccccc1N(C)c1nc(Cl)nc2ccccc12 [Example 44, (2-Chloro-quinazolin-4-yl)-(2-methoxy-phenyl)-methyl-amine] |  | 501 | 501 | 10000 |  |
| COc1ccc(N(C)c2nccc3ccccc23)cc1 [Example 65, (Isoquinolin-1-yl)-(4-methoxy-phenyl)-methyl-amine] |  | 599 | 599 | 10000 |  |
| COc1ccc(N(C)c2nc(C)nc3ccccc23)cc1 [Example 72, (4-Methoxy-phenyl)-methyl-(2-methyl-quinazolin-4-yl)-amine hydrochloride] |  |  |  | < 1000 | EC50 ([8]; 24 h, read-out: T-47D (24 hr) EC50 (nM)): 2 nM; EC50 ([8]; 48 h, read-out: T-47D (48 hr) EC50 (nM)): 2 nM; EC50 ([8]; read-out: Caspase activation (EC50 nM)): 2 nM |
| COc1cc2nc(C)nc(Nc3cccc(Br)c3)c2cc1OC [R1=Me, R2=3′-Br, R3═H] |  |  |  |  | IC50 [12]: > 10000 nM |
| COc1cc2nc(N)nc(Nc3cccc(Br)c3)c2cc1OC [R1═NH2, R2=3′-Br, R3═H] |  |  |  |  | IC50 [12]: > 10000 nM |
| COc1cc([C@@H]2c3cc4c(cc3[C@@H](O[C@@H]3O[C@@H]5CO[C@@H](C)O[C@H]5[C@H](O)[C@H]3O)[C@H]3COC(=O)[C@H]23)OCO4)cc(OC)c1O [VP-16, etoposide, reference compound] |  |  |  |  | Effect on topoisomerase I-dependent relaxation of supercoiled DNA [13]: no apparent effect on topoisomerase I activity |
| CC[C@]1(O)C[C@@H]2CN(CCc3c([nH]c4ccccc34)[C@@](C(=O)OC)(c3cc4c(cc3OC)N(C)[C@H]3[C@@](O)(C(=O)OC)[C@H](OC(C)=O)[C@]5(CC)C=CCN6CC[C@]43[C@@H]65)C2)C1 [Vinblastine, vinblastine] |  |  |  |  | IC50 [1]: 2.6 nM; IC50 [2]: 0.5 nM; IC50 [3]: 3 nM; IC50 [4]: 2.8 nM |
